Data from US20080176810A1, “Use of 3, 4', 5-Trihydroxy-Stilbene-3-Beta-D-glucoside in Prepartion of Medicines For Treating and/or Preventing Ischemic Heart Disease” (SHENZHEN NEPTUNUS PHARMACEUTICAL CO., LTD., priority 2004, published 2008).

Test system: anesthetized dogs
Assay: Hemodynamics in anesthetized dogs, iv
Type: in vivo
Procedure: Solvent control group, Isosorbide Dinitrate control group (0.4 mg/kg/h) and administration groups of 3,4′,5-trihydroxy-stilbene-3-[…]-D-glucoside at low (2.5 mg/kg), middle (5 mg/kg) or high (10 mg/kg) doses were set up for the test. Isosorbide Dinitrate control group were medicated by continuous intravenous infusion and other groups by intravenous injection.
After anesthetized with pentobarbital sodium, the dog was immobilized on its back. A femoral artery was separated for insertion of a catheter to record blood pressure of artery. A cardiac catheter was guided inversely from right common carotid artery into its left ventricle. Both catheters were connected to pressure transmitters. After pressure signals were amplified with carriers, they were input into an electrophysiolograph Powerlab system 8s, (ML785/8S AD Instruments, Australia). Needle electrodes were punctured into four limbs to monitor standard 2-lead ECG. A computer (chart4.12, ML785/8S, AD Instruments, Australia) were applied for real-time monitoring and storage of data. After operation, there were 30 minutes for stableness and then basic indexes were recorded before administration. Negative control group were given by […] injection of solvent at 2 ml/kg, while positive control group were intravenously infused at 0.4 mg/kg/h. […]
Indexes of observation included heart rate (HR), systolic blood pressure (BPs), diastolic blood pressure, mean blood pressure, left ventricular systolic pressure (LVSP), left ventricular diastolic pressure (LVDP), the maximum change rate of left ventricular systolic pressure rise and fall (±dp/dtmax), left ventricular end diastolic pressure and ECG.
Significance of differences was checked.

[1] = TSG 5 mg/kg iv, Time c1-c5: 0,15,30,60,120 min, 15 min after dosing
[2] = TSG 5 mg/kg iv, Time c1-c5: 0,15,30,60,120 min, 30 min after dosing
[3] = TSG 5 mg/kg iv, Time c1-c5: 0,15,30,60,120 min, 60 min after dosing
[4] = TSG 5 mg/kg iv, Time c1-c5: 0,15,30,60,120 min, 120 min after dosing
[5] = TSG 10 mg/kg iv, Time c1-c5: 0,10,30,60,120 min, 0 min
[6] = TSG 10 mg/kg iv, Time c1-c5: 0,10,30,60,120 min, 10 min after dosing
[7] = TSG 10 mg/kg iv, Time c1-c5: 0,10,30,60,120 min, 30 min after dosing
[8] = TSG 10 mg/kg iv, Time c1-c5: 0,10,30,60,120 min, 60 min after dosing
[9] = TSG 10 mg/kg iv, Time c1-c5: 0,10,30,60,120 min, 120 min after dosing

“3,4′,5-trihydroxy-stilbene-3-β-D-glucoside [TSG]” was tested, and the LVEDP [1] was 1.08 ± 1.62 KPa, the LVSP [1] was 24.3 ± 4.6 KPa and the “−dp/dt max” value [1] was 812.2 ± 308.9 Kpa/s. For the same substance, the “+dp/dt max” value [2] was 855.5 ± 296.5 Kpa/s, the BPd [2] was 19.2 ± 4.0 KPa and the BPm [2] was 21.7 ± 4.2 KPa. For the same substance, the BPs [2] was 26.1 ± 5.3 KPa, the HR [2] was 170.0 ± 35.5 p/min and the LVEDP [2] was 1.19 ± 1.76 KPa. The LVSP [2] was 24.6 ± 4.6 KPa, the “−dp/dt max” value [2] was 912.3 ± 318.8 Kpa/s and the “+dp/dt max” value [3] was 936.1 ± 199.9 Kpa/s. It also gave a BPd [3] of 19.8 ± 3.3 KPa, a BPm [3] of 22.1 ± 3.3 KPa and a BPs [3] of 26.6 ± 4.1 KPa. The HR [3] was 178.0 ± 29.5 p/min, the LVEDP [3] was 0.99 ± 1.19 KPa and the LVSP [3] was 25.6 ± 3.0 KPa. For the same substance, the “−dp/dt max” value [3] was 891.5 ± 261.8 Kpa/s, the “+dp/dt max” value [4] was 921.4 ± 327.1 Kpa/s and the BPd [4] was 18.8 ± 4.4 KPa. It also gave a BPm [4] of 21.0 ± 4.4 KPa, a BPs [4] of 25.0 ± 5.0 KPa and an HR [4] of 170.2 ± 37.1 p/min. For the same substance, the LVEDP [4] was 0.98 ± 1.42 KPa, the LVSP [4] was 25.1 ± 5.2 KPa and the “−dp/dt max” value [4] was 872.0 ± 291.7 Kpa/s. For the same substance, the “+dp/dt max” value [5] was 1455.5 ± 637.7 Kpa/s, the BPd [5] was 19.6 ± 3.7 KPa and the BPm [5] was 22.5 ± 4.8 KPa. For the same substance, the BPs [5] was 28.5 ± 7.5 KPa, the HR [5] was 212.5 ± 31.3 p/min and the LVSP [5] was 30.1 ± 5.9 KPa. For the same substance, the “−dp/dt max” value [5] was 1164.1 ± 488.8 Kpa/s, the “+dp/dt max” value [6] was 1646.2 ± 807.8 Kpa/s and the BPd [6] was 21.0 ± 5.1 KPa. It also gave a BPm [6] of 24.5 ± 5.9 KPa, a BPs [6] of 32.4 ± 8.2 KPa and an HR [6] of 209.7 ± 33.4 p/min. For the same substance, the LVSP [6] was 32.4 ± 6.3 KPa, the “−dp/dt max” value [6] was 1200.6 ± 447.6 Kpa/s and the “+dp/dt max” value [7] was 1623.9 ± 729.5 Kpa/s. It also gave a BPd [7] of 21.4 ± 5.5 KPa, a BPm [7] of 25.1 ± 5.9 KPa and a BPs [7] of 33.2 ± 8.5 KPa. For the same substance, the HR [7] was 210.2 ± 33.8 p/min, the LVSP [7] was 32.4 ± 6.8 KPa and the “−dp/dt max” value [7] was 1120.4 ± 357.8 Kpa/s. For the same substance, the “+dp/dt max” value [8] was 1518.5 ± 708.1 Kpa/s, the BPd [8] was 20.6 ± 4.8 KPa and the BPm [8] was 24.4 ± 5.1 KPa. The BPs [8] was 33.6 ± 5.5 KPa, the HR [8] was 207.1 ± 38.1 p/min and the LVSP [8] was 31.7 ± 5.5 KPa. For the same substance, the “−dp/dt max” value [8] was 1189.6 ± 461.6 Kpa/s, the “+dp/dt max” value [9] was 1266.6 ± 334.8 Kpa/s and the BPd [9] was 20.2 ± 3.0 KPa. The BPm [9] was 22.7 ± 3.0 KPa, the BPs [9] was 29.0 ± 4.8 KPa and the HR [9] was 205.6 ± 50.2 p/min. For the same substance, the LVSP [9] was 29.5 ± 2.7 KPa and the “−dp/dt max” value [9] was 1068.5 ± 208.6 Kpa/s.
